Results reported in US12029751B2, “Therapeutic agent for nervous system disease” (OSAKA UNIVERSITY, priority 2017, dated 2024).

Assays:
[1] = tested on: cerebral cortical neurons; assay: Neurite outgrowth assay (axon outgrowth promoting effect); assay type: cell-based, rat; details: for average length of axons: 72 hours after cell seeding
Description: Cerebral cortical neurons were collected and cultured by a conventional method. Cerebral cortex was dissected from a fetus of a Sprague-Dawley (SD) rat (18th day of pregnancy) and recovered in ice-cooled Dulbecco's Modified Eagle Medium (DMEM) containing 10% fetal bovine serum (FBS) and 1% penicillin/streptomycin. The pia mater and blood vessels were removed, and the remaining cerebral cortex was transferred to DMEM (containing 1% penicillin/streptomycin and no FBS) and cut into small pieces having a size of 1 mm by surgical scissors. Papain (final concentration, 2 mg/ml) was added to the cell mixture, and the mixture was allowed to react at 37° C. for 30 minutes. DNase I (70 U/ml) was added to the reaction mixture and reaction was carried out for 30 seconds. Then, DMEM containing 10% FBS and 1% penicillin/streptomycin was added to terminate the reaction. The cell mixture was centrifuged at 800 rpm, the residue was re-suspended in DMEM containing 10% FBS and 1% penicillin/streptomycin, and the suspension was seeded on a dish coated with poly-L lysine (PLL). At 4 hours after the cell seeding, the medium was replaced with Neurobasal medium (containing 10% B27 supplement and 1% penicillin/streptomycin).
The cerebral cortical neurons (Example 1-1) were seeded, and the drug was added in different concentrations at 24 hours. The concentrations of methylcobalamin added were 1, 10, and 100 nM and 1, 10, and 100 μM. At 72 hours after the cell seeding, immunofluorescent staining was performed using an anti-TuJ1 antibody, and the lengths of axons (the longest neurite length per neuron) were measured. The measurement was performed on cells that were not in contact with other cells. In each evaluation, at least 30 neural axons were measured, and the mean of the obtained values was calculated and designated as a measured value.

[2] = tested on: Mouse macrophage cell line J774A.1; assay: Western blot of M1 markers (IL-1β, iNOS) and M2 markers (Arg1, CD206) in macrophage cell line; assay type: cell-based; details: for Arg1 protein / GAPDH protein / CD206 protein / GAPDH protein: 72 hours; for IL-1β protein / GAPDH protein / iNOS protein / GAPDH protein: 24 hours
Protocol: Mouse macrophage cell line J774A.1 (JCRB9108) was purchased from JCRB Cell Bank (Laboratory of Cell Cultures), Osaka, Japan. Cells were cultured in DMEM containing 10% FBS and 1% penicillin/streptomycin.
The J774A.1 cells (Example 5-1) were seeded on a dish having a diameter of 6 cm. After 4 days, proteins were collected using a cell lysis buffer containing a cocktail of protease inhibitors. The protein concentration was measured by BCA assay. Then, 50 μg of each sample was subjected to SDS-PAGE, and the electrophoresed proteins were transferred to a polyvinylidene difluoride membrane. The membrane was blocked with a blocking buffer for 1 hour, and then the proteins were allowed to react with primary antibodies at 4° C. overnight. The proteins were further allowed to react with a secondary antibody at room temperature for 1 hour and detected using ECL Western Blotting Detection System. To detect the M1 markers iNOS and IL-1β, lipopolysaccharide (LPS) (100 ng/ml) and methylcobalamin were added at 24 hours before collecting the proteins. To detect the M2 markers Arg1 and CD206, IL-4 (20 ng/ml) and methylcobalamin were added at 72 hours before collecting the proteins.
The primary antibodies used were a rabbit anti-IL-1β polyclonal antibody (Santa Cruz), a rabbit anti-iNOS monoclonal antibody (Abeam), a rabbit anti-Arg1 polyclonal antibody (Santa Cruz), and a rabbit anti-CD206 monoclonal antibody (Abeam). The secondary antibody used was anti-rabbit IgG, horseradish peroxidase-linked whole antibody from donkey (GE Healthcare Life Sciences).

## C/C1=C2/[N-][C@H]([C@H](CC(N)=O)[C@@]2(C)CCC(=O)NC[C@@H](C)OP(=O)([O-])O[C@H]2[C@@H](O)[C@@H](n3cnc4cc(C)c(C)cc43)O[C@@H]2CO)[C@]2(C)N=C(/C(C)=C3N=C(/C=C4N=C1[C@@H](CCC(N)=O)C\4(C)C)[C@@H](CCC(N)=O)[C@]\3(C)CC(N)=O)[C@@H](CCC(N)=O)[C@]2(C)CC(N)=O.[CH3-].[Co+3] [MeCbl, methylcobalamin]
[1]; MeCbl 1 nM
  average length of axons: 67.2 µm
[1]; MeCbl 10 nM
  average length of axons: 71.2 µm
[1]; MeCbl 100 nM
  average length of axons: 75.2 µm
[1]; MeCbl 1 μM
  average length of axons: 79.9 µm
[1]; MeCbl 1 μM, listed as methylcobalamin
  average length of axons: significantly promoted
[1]; MeCbl 10 μM
  average length of axons: 86.4 µm
[1]; MeCbl 10 μM, listed as methylcobalamin
  average length of axons: significantly promoted
[1]; MeCbl 100 μM
  average length of axons: 66.2 µm
[1]; concentrations 1 nM to 100 μM tested
  methylcobalamin concentration at peak of axon outgrowth promotion: 10 µM
[2]; IL-4 20 ng/ml + MeCbl 1 nM
  Arg1 protein / GAPDH protein: 1.42
  CD206 protein / GAPDH protein: 1.28
[2]; IL-4 20 ng/ml + MeCbl 10 nM
  Arg1 protein / GAPDH protein: 1.60
  CD206 protein / GAPDH protein: 1.49
[2]; IL-4 20 ng/ml + MeCbl 100 nM
  Arg1 protein / GAPDH protein: 1.93
  CD206 protein / GAPDH protein: 1.53
[2]; IL-4 20 ng/ml + MeCbl 100 nM, listed as methylcobalamin
  Arg1 protein / GAPDH protein: significantly increased
[2]; IL-4 20 ng/ml + MeCbl 1 μM
  Arg1 protein / GAPDH protein: 1.65
  CD206 protein / GAPDH protein: 1.58
[2]; IL-4 20 ng/ml + MeCbl 1 μM, listed as methylcobalamin
  Arg1 protein / GAPDH protein: significantly increased
[2]; IL-4 20 ng/ml + MeCbl 10 μM
  Arg1 protein / GAPDH protein: 1.26
  CD206 protein / GAPDH protein: 1.08
[2]; IL-4 20 ng/ml + MeCbl 100 μM
  Arg1 protein / GAPDH protein: 0.92
  CD206 protein / GAPDH protein: 1.12
[2]; IL-4 20 ng/ml + MeCbl 1 mM
  Arg1 protein / GAPDH protein: 0.54
  CD206 protein / GAPDH protein: 0.78
[2]; IL-4 + methylcobalamin, Western blot
  methylcobalamin concentration at peaks of the CD206 levels: 100 to 1000 nM
[2]; LPS 100 ng/ml + MeCbl 1 nM
  IL-1β protein / GAPDH protein: 0.91
  iNOS protein / GAPDH protein: 0.87
[2]; LPS 100 ng/ml + MeCbl 10 nM
  IL-1β protein / GAPDH protein: 0.68
  iNOS protein / GAPDH protein: 0.56
[2]; LPS 100 ng/ml + MeCbl 100 nM
  IL-1β protein / GAPDH protein: 0.46
  iNOS protein / GAPDH protein: 0.15
[2]; LPS 100 ng/ml + MeCbl 100 nM, listed as methylcobalamin
  IL-1β protein / GAPDH protein: significantly decreased
[2]; LPS 100 ng/ml + MeCbl 1 μM
  IL-1β protein / GAPDH protein: 0.46
  iNOS protein / GAPDH protein: 0.27
[2]; LPS 100 ng/ml + MeCbl 10 μM
  IL-1β protein / GAPDH protein: 0.60
  iNOS protein / GAPDH protein: 0.33
[2]; LPS 100 ng/ml + MeCbl 100 μM
  IL-1β protein / GAPDH protein: 0.75
  iNOS protein / GAPDH protein: 0.45
[2]; LPS 100 ng/ml + MeCbl 1 mM
  IL-1β protein / GAPDH protein: 1.26
  iNOS protein / GAPDH protein: 0.53
[2]; LPS + 100 nM to 10 μM methylcobalamin
  iNOS level (Western blot) as compared with LPS alone: significantly decreased
